Source: patent publication US9227971B2, “Pyrazolo[1,5-a]pyrimidine compounds as mTOR inhibitors” (Merck Sharp & Dohme Corp., priority 2010, dated 2016)

Experiments:
[1] = tested on: phosphorylated 4E-BP1 Thr37/46 (p4E-BP1 Thr37/46), mTORC1 activity, PC3 cells; test: mTOR target engagement assay, immunofluorescent cell-based, p4E-BP1 Thr37/46 readout (mTORC1 activity); settings: Homo sapiens, PC-3, Table 3-1; PC3 cells; read-out: p4E-BP1 Thr37/46 IC50
Summary of the method: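 Read-out is fluorescence intensity of immunostained p4E-BP1 Thr37/46 in fixed PC3 cells, fitted to a logistic curve for IC50 with DMSO-only wells as top. Cells had been exposed to serial compound dilutions for ninety minutes at 37° C in 5% FBS medium with 0.25% DMSO.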

[2] = tested on: phosphorylated AKT Ser473 (pAKT S473), mTORC2 activity, PC3 cells; test: mTOR target engagement assay, immunofluorescent cell-based, pAKT S473 readout (mTORC2 activity); settings: Homo sapiens, PC-3, Table 3-1; PC3 cells
Summary of the method: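 After blocking, cells were stained overnight at 4 °C with anti-pAKT S473 antibody, then a fluorescent secondary; inhibition was read as reduced fluorescence intensity.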

## CS(=O)(=O)c1c([C@@H]2C[C@H]3CC[C@@H](C2)N3C(=O)CO)nc2c(-c3ccc(C(N)=O)c(F)c3)cnn2c1N [Compound 3.156, 4-(7-amino-5-((1R,3a,5S)-8-(2-hydroxyacetyl)-8-azabicyclo[3.2.1]octan-3-yl)-6-(methylsulfonyl)pyrazolo[1,5-a]pyrimidin-3-yl)-2-fluorobenzamide]
[1]
  IC50: 1000 to 10000 nM
[2]
  IC50: > 10000 nM

## Cc1cc(-c2cnn3c(N)c(S(C)(=O)=O)c([C@@H]4C[C@H]5CC[C@@H](C4)N5C(=O)c4nnc[nH]4)nc23)cnc1C(C)(C)O [Compound 3.157, ((1R,3s,5S)-3-(7-amino-3-(6-(2-hydroxypropan-2-yl)-5-methylpyridin-3-yl)-6-(methylsulfonyl)pyrazolo[1,5-a]pyrimidin-5-yl)-8-azabicyclo[3.2.1]octan-8-yl)(4H-1,2,4-triazol-3-yl)methanone]
[1]
  IC50: 1 to 100 nM
[2]
  IC50: 1 to 100 nM

## CC(C)(O)c1ncc(-c2cnn3c(N)c(S(C)(=O)=O)c([C@@H]4C[C@H]5CC[C@@H](C4)N5C(=O)c4nnc[nH]4)nc23)cc1Cl [Compound 3.158, ((1R,3s,5S)-3-(7-amino-3-(5-chloro-6-(2-hydroxypropan-2-yl)pyridin-3-yl)-6-(methylsulfonyl)pyrazolo[1,5-a]pyrimidin-5-yl)-8-azabicyclo[3.2.1]octan-8-yl)(4H-1,2,4-triazol-3-yl)methanone]
[1]
  IC50: 1 to 100 nM
[2]
  IC50: 1 to 100 nM

## Nc1c(S(=O)(=O)C2CC2)c([C@@H]2C[C@H]3CC[C@@H](C2)N3C(=O)c2nnc[nH]2)nc2c(-c3ccc(-c4ccccc4)nc3)cnn12 [Compound 3.160, ((1R,3s,5S)-3-(7-amino-6-(cyclopropylsulfonyl)-3-(6-phenylpyridin-3-yl)pyrazolo[1,5-a]pyrimidin-5-yl)-8-azabicyclo[3.2.1]octan-8-yl)(4H-1,2,4-triazol-3-yl)methanone]
[1]
  IC50: 100 to 1000 nM
[2]
  IC50: 1 to 100 nM

## CCS(=O)(=O)c1c([C@@H]2C[C@H]3CC[C@@H](C2)N3C(=O)c2nnc[nH]2)nc2c(-c3ccc(-c4ccccc4)nc3)cnn2c1N [Compound 3.161, ((1R,3s,5S)-3-(7-amino-6-(ethylsulfonyl)-3-(6-phenylpyridin-3-yl)pyrazolo[1,5-a]pyrimidin-5-yl)-8-azabicyclo[3.2.1]octan-8-yl)(4H-1,2,4-triazol-3-yl)methanone]
[1]
  IC50: 1 to 100 nM
[2]
  IC50: 1 to 100 nM

## CCCS(=O)(=O)c1c([C@@H]2C[C@H]3CC[C@@H](C2)N3C(=O)c2nnc[nH]2)nc2c(-c3ccc(-c4ccccc4)nc3)cnn2c1N [Compound 3.162, ((1R,3s,5S)-3-(7-amino-3-(6-phenylpyridin-3-yl)-6-(propylsulfonyl)pyrazolo[1,5-a]pyrimidin-5-yl)-8-azabicyclo[3.2.1]octan-8-yl)(4H-1,2,4-triazol-3-yl)methanone]
[1]
  IC50: 100 to 1000 nM
[2]
  IC50: 100 to 1000 nM

## CC(C)S(=O)(=O)c1c([C@@H]2C[C@H]3CC[C@@H](C2)N3C(=O)c2nnc[nH]2)nc2c(-c3ccc(-c4ccccc4)nc3)cnn2c1N [Compound 3.163, ((1R,3s,5S)-3-(7-amino-6-(isopropylsulfonyl)-3-(6-phenylpyridin-3-yl)pyrazolo[1,5-a]pyrimidin-5-yl)-8-azabicyclo[3.2.1]octan-8-yl)(4H-1,2,4-triazol-3-yl)methanone]
[1]
  IC50: 100 to 1000 nM
[2]
  IC50: 100 to 1000 nM

## COc1ccc(-c2ccc(-c3cnn4c(N)c(S(C)(=O)=O)c([C@@H]5C[C@H]6CC[C@@H](C5)N6C(=O)c5nnc[nH]5)nc34)cn2)cn1 [Compound 3.164, ((1R,3s,5S)-3-(7-amino-3-(6′-methoxy-2,3′-bipyridin-5-yl)-6-(methylsulfonyl)pyrazolo[1,5-a]pyrimidin-5-yl)-8-azabicyclo[3.2.1]octan-8-yl)(4H-1,2,4-triazol-3-yl)methanone]
[1]
  IC50: 100 to 1000 nM
[2]
  IC50: 100 to 1000 nM

## CS(=O)(=O)c1c([C@H]2CC3CC[C@H](C2)N3C(=O)c2nnc[nH]2)nc2c(-c3ccc(C4CCCCC4)nc3)cnn2c1N [Compound 3.165, ((1R,3s,5S)-3-(7-amino-3-(6-cyclohexylpyridin-3-yl)-6-(methylsulfonyl)pyrazolo[1,5-a]pyrimidin-5-yl)-8-azabicyclo[3.2.1]octan-8-yl)(4H-1,2,4-triazol-3-yl)methanone]
[1]
  IC50: 100 to 1000 nM
[2]
  IC50: 100 to 1000 nM

## CS(=O)(=O)c1c([C@H]2CC3CC[C@H](C2)N3C(=O)c2nnc[nH]2)nc2c(-c3ccc(C4CCCC4)nc3)cnn2c1N [Compound 3.166, ((1R,3s,5S)-3-(7-amino-3-(6-cyclopentylpyridin-3-yl)-6-(methylsulfonyl)pyrazolo[1,5-a]pyrimidin-5-yl)-8-azabicyclo[3.2.1]octan-8-yl)(4H-1,2,4-triazol-3-yl)methanone]
[1]
  IC50: 100 to 1000 nM
[2]
  IC50: 100 to 1000 nM

## CS(=O)(=O)c1c([C@H]2CC3CC[C@H](C2)N3C(=O)c2ncn[nH]2)nc2c(-c3ccc(C4CCC4)nc3)cnn2c1N [Compound 3.167, ((1R,3s,5S)-3-(7-amino-3-(6-cyclobutylpyridin-3-yl)-6-(methylsulfonyl)pyrazolo[1,5-a]pyrimidin-5-yl)-8-azabicyclo[3.2.1]octan-8-yl)(1H-1,2,4-triazol-5-yl)methanone]
[1]
  IC50: 100 to 1000 nM
[2]
  IC50: 100 to 1000 nM

## COc1ccc(-c2ccc(-c3cnn4c(N)c(S(C)(=O)=O)c([C@H]5CC6CC[C@H](C5)N6C(=O)c5cn[nH]n5)nc34)cn2)cc1F [Compound 3.169, ((1R,3a,5S)-3-(7-amino-3-(6-(3-fluoro-4-methoxyphenyl)pyridin-3-yl)-6-(methylsulfonyl)pyrazolo[1,5-a]pyrimidin-5-yl)-8-azabicyclo[3.2.1]octan-8-yl)(2H-1,2,3-triazol-4-yl)methanone]
[1]
  IC50: 100 to 1000 nM
[2]
  IC50: 1 to 100 nM

## CS(=O)(=O)c1c([C@H]2CC3CC[C@H](C2)N3C(=O)c2cn[nH]n2)nc2c(-c3ccc(-c4ccccc4F)nc3)cnn2c1N [Compound 3.170, ((1R,3s,5S)-3-(7-amino-3-(6-(2-fluorophenyl)pyridin-3-yl)-6-(methylsulfonyl)pyrazolo[1,5-a]pyrimidin-5-yl)-8-azabicyclo[3.2.1]octan-8-yl)(2H-1,2,3-triazol-4-yl)methanone]
[1]
  IC50: 100 to 1000 nM
[2]
  IC50: 100 to 1000 nM

## CONC(=O)N1C2CC[C@@H]1C[C@@H](c1nc3c(-c4ccc(-c5ccccc5)nc4)cnn3c(N)c1S(C)(=O)=O)C2 [Compound 3.171, (1R,3s,5S)-3-(7-amino-6-(methylsulfonyl)-3-(6-phenylpyridin-3-yl)pyrazolo[1,5-a]pyrimidin-5-yl)-N-methoxy-8-azabicyclo[3.2.1]octane-8-carboxamide]
[1]
  IC50: 100 to 1000 nM
[2]
  IC50: 100 to 1000 nM

## CS(=O)(=O)c1c([C@H]2CC3CC[C@H](C2)N3C(=O)NO)nc2c(-c3ccc(-c4ccccc4)nc3)cnn2c1N [Compound 3.172, (1R,3s,5S)-3-(7-amino-6-(methylsulfonyl)-3-(6-phenylpyridin-3-yl)pyrazolo[1,5-a]pyrimidin-5-yl)-N-hydroxy-8-azabicyclo[3.2.1]octane-8-carboxamide]
[1]
  IC50: 1 to 100 nM
[2]
  IC50: 100 to 1000 nM

## CS(=O)(=O)c1c([C@H]2CC3CC[C@H](C2)N3C(=O)c2cnn[nH]2)nc2c(-c3ccc(-c4c(F)cccc4F)nc3)cnn2c1N [Compound 3.173, ((1R,3s,5S)-3-(7-amino-3-(6-(2,6-difluorophenyl)pyridin-3-yl)-6-(methylsulfonyl)pyrazolo[1,5-a]pyrimidin-5-yl)-8-azabicyclo[3.2.1]octan-8-yl)(1H-1,2,3-triazol-5-yl)methanone]
[1]
  IC50: 100 to 1000 nM
[2]
  IC50: 100 to 1000 nM

## Cn1ccc(-c2ccc(-c3cnn4c(N)c(S(C)(=O)=O)c([C@@H]5C[C@H]6CC[C@@H](C5)N6C(=O)c5cn[nH]n5)nc34)cn2)n1 [Compound 3.174, ((1R,3s,5S)-3-(7-amino-3-(6-(1-methyl-1H-pyrazol-3-yl)pyridin-3-yl)-6-(methylsulfonyl)pyrazolo[1,5-a]pyrimidin-5-yl)-8-azabicyclo[3.2.1]octan-8-yl)(2H-1,2,3-triazol-4-yl)methanone]
[1]
  IC50: 100 to 1000 nM
[2]
  IC50: 100 to 1000 nM

## CS(=O)(=O)c1c([C@H]2CC3CC[C@H](C2)N3C(=O)c2cn[nH]n2)nc2c(-c3cnc(-c4ccccc4)cn3)cnn2c1N [Compound 3.175]
[1]
  IC50: 1000 to 10000 nM
[2]
  IC50: 1000 to 10000 nM

## CS(=O)(=O)c1c([C@H]2CC3CC[C@H](C2)N3C(=O)c2cn[nH]n2)nc2c(-c3cnn(-c4ccccc4)c3)cnn2c1N [Compound 3.176, ((1R,3s,5S)-3-(7-amino-6-(methylsulfonyl)-3-(1-phenyl-1H-pyrazol-4-yl)pyrazolo[1,5-a]pyrimidin-5-yl)-8-azabicyclo[3.2.1]octan-8-yl)(2H-1,2,3-triazol-4-yl)methanone]
[1]
  IC50: 100 to 1000 nM
[2]
  IC50: 100 to 1000 nM

## CS(=O)(=O)c1c([C@H]2CC3CC[C@H](C2)N3C(=O)c2cn[nH]n2)nc2c(-c3cnc4ccc(F)cc4c3)cnn2c1N [Compound 3.177, ((1R,3s,5S)-3-(7-amino-3-(6-fluoroquinolin-3-yl)-6-(methylsulfonyl)pyrazolo[1,5-a]pyrimidin-5-yl)-8-azabicyclo[3.2.1]octan-8-yl)(2H-1,2,3-triazol-4-yl)methanone]
[1]
  IC50: 100 to 1000 nM
[2]
  IC50: 100 to 1000 nM

## CS(=O)(=O)c1c([C@H]2CC3CC[C@H](C2)N3C(=O)c2cn[nH]n2)nc2c(-c3cnn(-c4ccc(F)cc4)c3)cnn2c1N [Compound 3.178, ((1R,3s,5S)-3-(7-amino-3-(1-(4-fluorophenyl)-1H-pyrazol-4-yl)-6-(methylsulfonyl)pyrazolo[1,5-a]pyrimidin-5-yl)-8-azabicyclo[3.2.1]octan-8-yl)(2H-1,2,3-triazol-4-yl)methanone]
[1]
  IC50: 1000 to 10000 nM
[2]
  IC50: 1000 to 10000 nM
